Holding throughout (assay type): biochemical
For test [1], the target named is T1, CYP3A4 (Homo sapiens, UniProt P08684). Briefly: Determination of compound Kiapp against recombinant CYP3A4 enzyme (BFC fluorescent substrate). The procedure, abridged: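 Recombinant CYP3A4 (5.5 or 8 nM, with or without b5 depending on source) pre-incubated with inhibitor ≥30 min at room temperature in 100 mM sodium phosphate pH 7.0, 5 mM TCEP, 2% DMF. Reaction started with 200 uM NADPH and 5 uM BFC; initial fluorescence rates over 5 min fitted to Morrison tight-binding (non-partial) or Szedlacsek (partial) equations for Kiapp.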
T1 sequence (P08684 whole entry): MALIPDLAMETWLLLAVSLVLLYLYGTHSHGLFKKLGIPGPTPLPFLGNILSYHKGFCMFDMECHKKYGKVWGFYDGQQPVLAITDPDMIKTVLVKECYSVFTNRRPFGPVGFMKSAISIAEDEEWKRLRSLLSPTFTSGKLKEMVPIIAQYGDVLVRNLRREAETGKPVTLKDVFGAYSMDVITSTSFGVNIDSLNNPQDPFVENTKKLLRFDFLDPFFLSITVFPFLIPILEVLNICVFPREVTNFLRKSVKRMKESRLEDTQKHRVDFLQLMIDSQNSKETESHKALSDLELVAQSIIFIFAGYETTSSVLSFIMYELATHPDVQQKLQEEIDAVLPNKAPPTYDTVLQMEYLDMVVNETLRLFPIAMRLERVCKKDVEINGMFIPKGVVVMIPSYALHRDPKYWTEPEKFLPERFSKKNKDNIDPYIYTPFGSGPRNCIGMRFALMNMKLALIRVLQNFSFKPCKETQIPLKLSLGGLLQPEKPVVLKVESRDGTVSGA

The target of test [2] is T1, CYP3A4. Briefly: Determination of IC50 against CYP3A4 by measurement of inhibition of testosterone metabolism (human liver microsomes, 6-β-OH-testosterone by LC-MS/MS). The conditions noted are these: read-out: IC50 (Testo.). The arrangement: 0.1 mg/mL human liver microsomes. On the procedure: 2. Determination of IC50 Against CYP3A4 by Measurement of Inhibition of Testosterone Metabolism
This assay was performed using a standard 96 well plate design. […] The incubation substrate mix contains 25 μM testosterone, 0.1 mg/mL human liver microsomes, 1 mM NADPH, and potassium phosphate buffer (100 mM, pH 7.4). Quantitation of metabolite peak area ratio against an internal standard is determined by LC-MS/MS analysis. The production of 6-β-OH-testosterone from testosterone metabolism is determined after incubation for eight minutes by comparison to a standard curve generated for the metabolite
Samples were analyzed in the MRM mode using a Sciex API 3000 mass spectrometer (Applied Biosystems, Foster City, Calif.) with a Paradigm MS4 binary pump (Michrom BioResources Inc., Auburn, Calif.) and a LEAP CTC PAL autosampler (LEAP Technologies, Carrboro, N.C.). A Phenomenex Synergi, 4μ, Polar-RP, 10×2.0 mm column (Phenomenex, Torrance, Calif.) was used for separation with a mobile phase composition of: 0.1% formic acid in water (A) and: 0.1% formic acid in methanol (B). The following gradient was used: […]
The sample injection volume was 10 μL and flow was split post-column with 0.4 mL/min going to the mass spectrometer. Analysis was performed using the following API 3000 mass spectrometer settings: […]

In test [3] the target is T1, CYP3A4. Briefly: Determination of IC50 against CYP3A4 by measurement of inhibition of midazolam metabolism (human liver microsomes, 1-hydroxymidazolam by LC-MS/MS). The arrangement: 0.1 mg/mL human liver microsomes. The conditions noted are these: 2 μM midazolam, 0.1 mg/mL human liver microsomes. The method, boiled down: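 Human liver microsomes (0.1 mg/mL) incubated 8 min with 2 μM midazolam and 1 mM NADPH in 100 mM potassium phosphate, pH 7.4. 1-Hydroxymidazolam quantified by LC-MS/MS (MRM) as peak area ratio to internal standard against a metabolite standard curve.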

Where [4] appears, read: Baculo. enzyme preparation, read-out: Kiapp (BFC, Baculo.).
[5] abbreviates: Super. enzyme preparation, read-out: Kiapp (BFC, Super.).

Read-outs that look alike come from different tables or passages of the source.

Regarding `COc1cncc(NS(=O)(=O)c2ccccc2C(=O)NC2CCCC2)c1` [Example 214, N-cyclopentyl-2-{[(5-methoxypyridin-3-yl)amino]sulfonyl}benzamide], the results for the Ki in test [1] (setting [4]) and in test [1] (setting [5]) were 355 nM and 47.3 nM, respectively. The values for the IC50 in test [2] and in test [3] were 66 nM and 14 nM, respectively.

In the case of `CC(C)(C)OC(=O)N1CC2(CCN(C(=O)c3ccccc3S(=O)(=O)Nc3cccnc3)CC2)C1` [Example 10, tert-butyl 7-{2-[(pyridin-3-ylamino)sulfonyl]benzoyl}-2,7-diazaspiro[3.5]nonane-2-carboxylate], the Ki is over 1000 nM in test [1] (setting [4]) and 558 nM in test [1] (setting [5]). Moreover, the figures for the 50% inhibitory concentration (IC50) in test [2] and in test [3] were over 750 nM and 279 nM, respectively.

Turning to `COc1cncc(NS(=O)(=O)c2ccccc2C(=O)NCC2CCCCC2)c1` [Example 200, N-(cyclohexylmethyl)-2-{[(5-methoxypyridin-3-yl)amino]sulfonyl}benzamide], the values for the Ki in test [1] (setting [4]) and in test [1] (setting [5]) were 36.1 nM and 9.9 nM, respectively. Besides, the IC50 in test [2] is 21 nM; in test [3] it was 12 nM.

With `COc1cncc(NS(=O)(=O)c2ccc(OCCCN(C)C)cc2C(=O)N(C)C(C)C)c1` [Example 248, 5-[3-(dimethylamino)propoxy]-N-isopropyl-2-{[(5-methoxypyridin-3-yl)amino]sulfonyl}-N-methylbenzamide], the Ki in test [1] (setting [4]) turned out to be 439 nM; in test [1] (setting [5]), 193 nM. For the same compound, the IC50 amounted to 235 nM in test [2] and 108 nM in test [3].

Consider `CCCCCNC(=O)c1ccccc1S(=O)(=O)N(C)c1cccnc1` [Example 340, 2-{[methyl(pyridin-3-yl)amino]sulfonyl}-N-pentylbenzamide], for which the figures for the Ki in test [1] (setting [4]) and in test [1] (setting [5]) were 338 nM and 92.2 nM, respectively. Also, the IC50 in test [2] stood at 44 nM; in test [3], 41 nM.

With `CC(C)(CN1CCCC1)NC(=O)c1ccccc1S(=O)(=O)Nc1cccnc1` [Example 3], the Ki was 858 nM in test [1] (setting [4]) and over 1000 nM in test [1] (setting [5]). Moreover, the IC50 in test [2] and in test [3] was over 750 nM throughout.

As for `CCCCNC(=O)c1ccccc1S(=O)(=O)Nc1cncc(C)c1` [Example 31, N-butyl-2-{[(5-methylpyridin-3-yl)amino]sulfonyl}benzamide], in test [1] (setting [4]), the Ki came out at 70.1 nM. Further, the IC50 in test [2] came out at 38 nM; in test [3] it was 23 nM.

For `COc1cncc(NS(=O)(=O)c2ccccc2C(=O)N(C)C(C)C)c1` [Example 282, N-isopropyl-2-{[(5-methoxypyridin-3-yl)amino]sulfonyl}-N-methylbenzamide], the Ki in test [1] (setting [4]) was 330 nM; in test [1] (setting [5]), 57.7 nM. Further, the half-inhibitory concentration (IC50) in test [2] turned out to be 62 nM; in test [3] it was 49 nM.

In the case of `O=C(NCC1CC1)c1ccccc1S(=O)(=O)Nc1cccnc1` [Example 48, N-(cyclopropylmethyl)-2-[(pyridin-3-ylamino)sulfonyl]benzamide], the Ki in test [1] (setting [4]) is over 1000 nM. The IC50 in test [2] came to 335 nM; in test [3], 327 nM.

On to `CN(Cc1ccccc1)C(=O)c1ccccc1S(=O)(=O)N(C)c1cccnc1` [Example 355, N-benzyl-N-methyl-2-{[methyl(pyridin-3-yl)amino]sulfonyl}benzamide], for which the results for the Ki in test [1] (setting [4]) and in test [1] (setting [5]) were 181 nM and 44.9 nM, respectively. Moreover, the results for the IC50 in test [2] and in test [3] were 64 nM and 63 nM, respectively.

As to `CCOc1cncc(NS(=O)(=O)c2ccccc2C(=O)N2CCCC(C)(C)C2)c1` [Example 298, 2-[(3,3-dimethylpiperidin-1-yl)carbonyl]-N-(5-ethoxypyridin-3-yl)benzenesulfonamide], the figures for the Ki in test [1] (setting [4]) and in test [1] (setting [5]) were 58.5 nM and 15.6 nM, respectively. Also, the IC50 in test [2] was determined as 135 nM; in test [3], 31 nM.

As to `Cc1cccc(CNC(=O)c2ccccc2S(=O)(=O)Nc2cccnc2)c1` [Example 80, N-(3-methylbenzyl)-2-[(pyridin-3-ylamino)sulfonyl]benzamide], the Ki is 206 nM in test [1] (setting [4]) and 4.1 nM in test [1] (setting [5]). Further, the IC50 in test [2] worked out at 71 nM; in test [3], 25 nM.

Regarding `CCCCCN(C)C(=O)c1ccccc1S(=O)(=O)Nc1cncc(OC)c1` [Example 339, 2-{[(5-methoxypyridin-3-yl)amino]sulfonyl}-N-methyl-N-pentylbenzamide], the Ki in test [1] (setting [4]) was determined as 35.4 nM; in test [1] (setting [5]), 6.1 nM. Moreover, the figures for the IC50 in test [2] and in test [3] were 26 nM and 14 nM, respectively.

For the compound `CC(C)(CO)NC(=O)c1ccccc1S(=O)(=O)Nc1cccnc1` [Example 39, N-(2-hydroxy-1,1-dimethylethyl)-2-[(pyridin-3-ylamino)sulfonyl]benzamide], in test [1] (setting [4]), the Ki was over 1000 nM. The IC50 in test [2] and in test [3] was over 500 nM each time.

Take `COc1cncc(N(C)S(=O)(=O)c2ccccc2C(=O)NCc2cccc(F)c2)c1` [Example 322, N-(3-fluorobenzyl)-2-{[(5-methoxypyridin-3-yl)(methyl)amino]sulfonyl} benzamide]: the Ki in test [1] (setting [4]) came out at 54.4 nM; in test [1] (setting [5]), 19.8 nM. The figures for the IC50 in test [2] and in test [3] were 15 nM and 11 nM, respectively.

For `O=C(NC1CCC1)c1ccccc1S(=O)(=O)Nc1cccnc1` [Example 65, N-cyclobutyl-2-[(pyridin-3-ylamino)sulfonyl]benzamide], the Ki in test [1] (setting [4]) is 920 nM. Moreover, the IC50 in test [2] was 214 nM; in test [3], 254 nM.

For the compound `COc1cncc(NS(=O)(=O)c2ccccc2C(=O)N2CCC(c3ccccc3)CC2)c1` [Example 231, N-(5-methoxypyridin-3-yl)-2-[(4-phenylpiperidin-1-yl)carbonyl]benzenesulfonamide], the Ki in test [1] (setting [4]) is 59.1 nM; in test [1] (setting [5]), 8.9 nM. In addition, the IC50 in test [2] came out at 31 nM; in test [3] it was 20 nM.

For `Cc1cncc(NS(=O)(=O)c2ccccc2C(=O)NCc2ccc(C)c(F)c2)c1` [Example 157, N-(3-fluoro-4-methylbenzyl)-2-{[(5-methylpyridin-3-yl)amino]sulfonyl}benzamide], the Ki in test [1] (setting [4]) was 49.4 nM; in test [1] (setting [5]), 1.3 nM. Further, the IC50 in test [2] and in test [3] was 8 nM throughout.

As for `COCCN(C)C(=O)c1ccccc1S(=O)(=O)Nc1cncc(C)c1` [Example 162, N-(2-methoxyethyl)-N-methyl-2-{[(5-methylpyridin-3-yl)amino]sulfonyl}benzamide], the Ki in test [1] (setting [4]) came to 469 nM; in test [1] (setting [5]), 99.9 nM. Moreover, the figures for the IC50 in test [2] and in test [3] were 170 nM and 93 nM, respectively.

Regarding `COc1cccc(OC)c1CNC(=O)c1ccccc1S(=O)(=O)Nc1cccnc1` [Example 45, N-(2,6-dimethoxybenzyl)-2-[(pyridin-3-ylamino)sulfonyl]benzamide], the Ki in test [1] (setting [4]) is 382 nM. Besides, the IC50 in test [2] came out at 42 nM; in test [3], 20 nM.

In the case of `COc1cncc(NS(=O)(=O)c2ccccc2C(=O)NCCC(C)C)c1` [Example 379, 2-{[(5-methoxypyridin-3-yl)amino]sulfonyl}-N-(3-methylbutyl)benzamide], the figures for the Ki in test [1] (setting [4]) and in test [1] (setting [5]) were 120 nM and 24.6 nM, respectively. Further, the IC50 turned out to be 7 nM in test [2] and 8 nM in test [3].

For the compound `Cc1cncc(NS(=O)(=O)c2ccccc2C(=O)N(C)CC2CCCC2)c1` [Example 347, N-(cyclopentylmethyl)-N-methyl-2-{[(5-methylpyridin-3-yl)amino]sulfonyl}benzamide], the values for the Ki in test [1] (setting [4]) and in test [1] (setting [5]) were 34.7 nM and 5.4 nM, respectively. Besides, the IC50 in test [2] is 26 nM; in test [3], 13 nM.

Values taken from patent US7868026B2, “Therapeutic compounds” (Pfizer Inc., priority 2005, dated 2011).
